Experimental data taken from ChEMBL document CHEMBL5532639, “Heterocyclic pyrimidine derivatives as promising antibacterial agents” (Eur J Med Chem, 2023).
In brackets after ≈: the same amount, converted by molar mass.

Columns and labels:
Pseudomonas aeruginosa [1] = experiment: Antimicrobial activity against Pseudomonas aeruginosa assessed as diameter of inhibition zone incubated for 24 hrs by well diffusion assay; type: functional
Micrococcus luteus = experiment: Antimicrobial activity against Micrococcus luteus assessed as diameter of inhibition zone incubated for 24 hrs by well diffusion assay; type: functional
Bacillus subtilis [2] = experiment: Antimicrobial activity against Bacillus subtilis assessed as diameter of inhibition zone incubated for 24 hrs by well diffusion assay; type: functional
Salmonella typhimurium [3] = experiment: Antimicrobial activity against Salmonella typhimurium DT104 assessed as inhibition of microbial growth incubated for 18 hrs by CLSI protocol based Mueller-Hinton broth assay; type: functional, Salmonella enterica subsp. enterica serovar Typhimurium; conditions: Salmonella enterica
Shigella boydii = experiment: Antibacterial activity against Shigella boydii assessed as inhibition of bacterial growth measured after 18 to 20 hrs by broth microdilution method; type: functional; conditions: time 18-20 hrs
Enterococcus faecalis = experiment: Antimicrobial activity against Enterococcus faecalis assessed as inhibition of microbial growth incubated for 18 hrs by CLSI protocol based Mueller-Hinton broth assay; type: functional
Klebsiella pneumoniae = experiment: Antimicrobial activity against Klebsiella pneumoniae assessed as inhibition of microbial growth incubated for 18 hrs by CLSI protocol based Mueller-Hinton broth assay; type: functional
Staphylococcus aureus [4] = experiment: Antimicrobial activity against Staphylococcus aureus assessed as inhibition of microbial growth incubated for 18 hrs by CLSI protocol based Mueller-Hinton broth assay; type: functional
Aeromonas hydrophila = experiment: Antibacterial activity against Aeromonas hydrophila assessed as inhibition of microbial growth incubated for 24 hrs by CLSI protocol based Mueller-Hinton broth assay; type: functional
[5] = test system: Salmonella enterica subsp. enterica serovar Paratyphi B; experiment: Antibacterial activity against Salmonella paratyphi B CICC 21495 assessed as reduction in […]; type: functional; conditions: time lower 48 hrs
[6] = test system: Staphylococcus epidermidis; experiment: Antimicrobial activity against Staphylococcus epidermidis assessed as inhibition of microbial growth incubated for 18 hrs by CLSI protocol based Mueller-Hinton broth assay; type: functional
Edwardsiella tarda = experiment: Antimicrobial activity against Edwardsiella tarda assessed as inhibition of microbial growth incubated for 18 hrs by CLSI protocol based Mueller-Hinton broth assay; type: functional
Morganella morganii [7] = experiment: Antibacterial activity against Morganella morganii UM573 assessed as bacterial growth inhibition incubated for 20 to 22 hrs by CLSI based analysis; type: functional; conditions: time 20-22 hrs
Plesiomonas shigelloides = experiment: Antibacterial activity against Plesiomonas shigelloides assessed as inhibition of bacterial growth measured after 18 to 20 hrs by broth microdilution method; type: functional; conditions: time 18-20 hrs
Pseudomonas aeruginosa [8] = experiment: Antimicrobial activity against Pseudomonas aeruginosa assessed as inhibition of microbial growth incubated for 18 hrs by CLSI protocol based Mueller-Hinton broth assay; type: functional
Vibrio cholerae [9] = experiment: Antibacterial activity against Vibrio cholerae assessed as inhibition of bacterial growth incubated for 24 hrs by broth microdilution method; type: functional
Vibrio parahaemolyticus = experiment: Antibacterial activity against Vibrio parahaemolyticus assessed as reduction in bacterial growth inhibition measured after 24 hrs by Mueller Hinton Agar dilution method; type: functional
Proteus vulgaris = experiment: Antimicrobial activity against Proteus vulgaris assessed as microbial growth inhibition incubated for 24 hrs by broth microdilution method; type: functional
Vibrio cholerae [10] = experiment: Antibacterial activity against Vibrio cholerae assessed as reduction in bacterial growth measured after 18 to 20 hrs by broth microdilution method; type: functional; conditions: time 18-20 hrs
Shigella sonnei = experiment: Antibacterial activity against Shigella sonnei assessed as inhibition of bacterial growth measured after 18 to 20 hrs by broth microdilution method; type: functional; conditions: time 18-20 hrs
Bacillus subtilis [11] = experiment: Antibacterial activity against Bacillus subtilis assessed as reduction in bacterial growth incubated for 24 hrs by CLSI protocol based Mueller-Hinton broth assay; type: functional
Citrobacter freundii = experiment: Antibacterial activity against multidrug-resistant Citrobacter freundii assessed as bacterial growth inhibition incubated for 20 to 22 hrs by CLSI based analysis; type: functional; conditions: time 20-22 hrs
Vibrio cholerae [12] = experiment: Antibacterial activity against Vibrio cholerae measured after 18 to 20 hrs by broth microdilution method; type: functional; conditions: time 18-20 hrs
Enterobacter sp. = experiment: Antibacterial activity against Enterobacter sp. assessed as inhibition of bacterial growth; type: functional
Morganella morganii [13] = experiment: Antibacterial activity against Morganella morganii UM869 incubated for 16 to 18 hrs by broth microdilution method; type: functional; conditions: time 16-18 hrs
Providencia rettgeri = experiment: Antibacterial activity against Providencia rettgeri assessed as bacterial growth inhibition incubated for 18 hrs by CLSI protocol based Mueller-Hinton broth assay; type: functional
Salmonella typhimurium [14] = experiment: Antibacterial activity against Salmonella typhimurium DT104 assessed as reduction in bacterial growth inhibition measured after 24 hrs by Mueller Hinton Agar dilution method; type: functional, Salmonella enterica subsp. enterica serovar Typhimurium; conditions: Salmonella enterica
Salmonella enterica = experiment: Antimicrobial activity against Salmonella enterica assessed as inhibition of microbial growth incubated for 18 hrs by CLSI protocol based Mueller-Hinton broth assay; type: functional
Shigella flexneri = experiment: Antibacterial activity against Shigella flexneri assessed as inhibition of bacterial growth incubated for 24 hrs by broth microdilution method; type: functional
Escherichia coli [15] = experiment: Antimicrobial activity against Escherichia coli assessed as inhibition of microbial growth incubated for 18 hrs by CLSI protocol based Mueller-Hinton broth assay; type: functional
Salmonella paratyphi = experiment: Antibacterial activity against Salmonella paratyphi A CICC 21501 incubated overnight by standard microtiter dilution method; type: functional, Salmonella enterica subsp. enterica serovar Paratyphi A; conditions: Salmonella enterica
Pseudomonas aeruginosa [16] = experiment: Antibacterial activity against Pseudomonas aeruginosa assessed as reduction in bacterial growth; type: functional
Escherichia coli [17] = experiment: Antibacterial activity against Escherichia coli assessed as reduction in bacterial growth; type: functional
Klebsiella sp. = experiment: Antibacterial activity against Klebsiella sp. assessed as inhibition of bacterial growth; type: functional
Staphylococcus aureus [18] = experiment: Antibacterial activity against Staphylococcus aureus assessed as reduction in microbial growth; type: functional

## Oc1ncnc(O)c1/N=N/c1ccc(/N=N/c2ccccc2)cc1
Pseudomonas aeruginosa [1]
  inhibition zone (IZ): 12 mm
Micrococcus luteus
  inhibition zone (IZ): 18 mm
Bacillus subtilis [2]
  inhibition zone (IZ): 13 mm

## Cc1ccc(-c2cc(-c3ccc(Cl)cc3)nc(/N=C3/C(=O)N(CNCN4CCOCC4)c4ccc(Br)cc43)n2)cc1
Salmonella typhimurium [3]
  MIC: 19.5 mg/L
Shigella boydii
  MIC: 9.76 mg/L (≈ 15.4 µM)
Enterococcus faecalis
  MIC: 1.22 mg/L
Klebsiella pneumoniae
  MIC: 312 mg/L
Staphylococcus aureus [4]
  MIC: 78.1 mg/L
Aeromonas hydrophila
  MIC: 312 mg/L
[5]
  MIC: 39.1 mg/L (≈ 61.8 µM)
[6]
  MIC: 625 mg/L
Edwardsiella tarda
  MIC: 39.1 mg/L
Morganella morganii [7]
  MIC: 156 mg/L (≈ 247 µM)
Plesiomonas shigelloides
  MIC: 4.88 mg/L (≈ 7.72 µM)
Pseudomonas aeruginosa [8]
  MIC: 312 mg/L
Vibrio cholerae [9]
  MIC: 39.1 mg/L (≈ 61.8 µM)
Vibrio parahaemolyticus
  MIC: 78.1 mg/L (≈ 124 µM)
Proteus vulgaris
  MIC: 312 mg/L (≈ 494 µM)
Vibrio cholerae [10]
  MIC: 9.76 mg/L (≈ 15.4 µM)
Shigella sonnei
  MIC: 312 mg/L (≈ 494 µM)
Bacillus subtilis [11]
  MIC: 9.76 mg/L (≈ 15.4 µM)
Citrobacter freundii
  MIC: 39.1 mg/L (≈ 61.8 µM)
Vibrio cholerae [12]
  MIC: 0.3 mg/L (≈ 0.475 µM)
Enterobacter sp.
  MIC: 156 mg/L (≈ 247 µM)
Morganella morganii [13]
  MIC: 156 mg/L (≈ 247 µM)
Providencia rettgeri
  MIC: 39.1 mg/L (≈ 61.8 µM)
Salmonella typhimurium [14]
  MIC: 156 mg/L (≈ 247 µM)
Salmonella enterica
  MIC: 9.76 mg/L
Shigella flexneri
  MIC: 312 mg/L (≈ 494 µM)
Escherichia coli [15]
  MIC: 2.44 mg/L
Salmonella paratyphi
  MIC: 39.1 mg/L (≈ 61.8 µM)

## COc1ccc2cc(-c3nc4sc5c(c4c(=O)n3N)CCCC5)ccc2c1
Pseudomonas aeruginosa [16]
  MIC: 12.5 mg/L (≈ 33.1 µM)
Escherichia coli [17]
  MIC: 12.5 mg/L (≈ 33.1 µM)
Klebsiella sp.
  MIC: 12.5 mg/L (≈ 33.1 µM)
Staphylococcus aureus [18]
  MIC: 12.5 mg/L
